Experimental data reported in US20080119483A1, “COMPOSITIONS AND METHODS FOR INHIBITING PROTOZOAN GROWTH” (priority 2006, published 2008).
Entries after “also recorded” stand apart in the source; their conditions may differ. Read-outs that look alike come from different tables or passages of the source.

Key:
[1] = system: L. major LV39 WT promastigotes; assay: microbe, parasite or virus in culture; type: cell-based, Leishmania major; conditions: for EC50: Leishmania major
Method: (§1) Log phase L. major LV39 WT and spt2 promastigotes were inoculated at 1.0×10^5 cells/ml and culture densities were determined 48 hours later.
(§2) Wild type (WT) L. major LV39 clone 5 (Rho/SU/59/P), FV1 (MOHM/IL/80/Friedlin virulent clone 1), spt2^− (Δspt2::HYG/Dspt2::PAC), ads1^− (Δads1::HYG/Dads1::SAT), and spt2^−/+SPT2 (Δspt2::HYG/Dspt2::PAC/+pXG-SPT2) cells were grown in M199 with 10% FBS and supplements as described [Zhang, et al., 2003; Kapler, et al., 1990]. For growth inhibition assays, promastigotes were inoculated at 1.0×10^5 cells/ml (in T25 flasks, 5 ml of medium per flask) in various concentrations of drugs. All cultures contained equivalent amount of DMSO or methanol (0.1% or less, from drug stocks). After 48 or 96 (for ads1^− only) hours, culture densities were determined using a Coulter counter (Z1, Beckman) and effects of drugs on growth were assessed in relative to cultures grown in the absence of drugs.
A classical isobologram was constructed by plotting EC50s of drugs either alone or in combination.

[2] = system: L. major spt2^− promastigotes; assay: microbe, parasite or virus in culture; type: cell-based, Leishmania major; conditions: for EC50: Leishmania major, 48 h, read-out: EC50 in spt2^−; for EC50 (WT)/EC50 (spt2^−): ratio
Method: as §1, §2

[3] = system: L. major LV39 WT promastigotes; assay: Composition of free sterols by GC/MS, WT promastigotes; type: cell-based, Leishmania major; conditions: 48 hours
Method: (§3) Log phase L. major LV39 WT and spt2^− promastigotes were grown in the presence or absence of ITZ or CLT. Culture densities were determined 48 hours later and total lipids were extracted and the composition of free sterols was determined by GC/MS as described in Materials and Methods. ND: not detectable. Each experiment was repeated at least 3 times and results from one representative set were shown.
(§4) Here WT and spt2^− parasites were grown in various concentrations of ITZ (0.001 nM to 1 μM) or CLT (10 nM to 5 μM). Effects of ITZ and CLT on growth, sterol composition and DRM were analyzed after 48 hours. Basically, culture densities were determined using a particle counter and drugs' effects on growth were assessed in comparison to control cells (no drug); sterol lipids were extracted and analyzed by GC/MS and the percentage of 14-methylfecosterol (among all detectable sterol lipids) was used to reflect changes in sterol composition (see Table 2). DRMs were also isolated and the percentage of GP63 that were insoluble at 4° C. was used as an indicator for the integrity of DRM (see FIG. 2). Two to four independent experiments were performed and the averaged results were plotted in FIG. 3.
(§5) Total lipids were extracted using the Folch's method [Folch, et al., 1957]. Briefly, promastigotes were harvested by centrifugation and washed once with PBS. Pellets were resuspended in chloroform:methanol (2:1) at 1.0×10^8 cells/ml with the addition of cholesta-3,5-diene (Sigma-Aldrich, FW 368.7) at 0.5 mg/10^8 cells (6.6×10^7/cell). After vortexing for 30 s, cell debris was removed by centrifugation (1000 g for 10 min) and samples were washed with 0.2 volume of 0.9% NaCl. After centrifugation, supernatants were removed and the organic phase solutions were dried under a stream of nitrogen. Samples were then dissolved in chloroform:methanol (1:2) at 1.0×10^9 cells/ml.
(§6) Electron impact gas chromatography/mass spectrometry (GC/MS) analyses of sterol lipids were performed on a Finnigan (San Jose, Calif.) SSQ-7000 single-stage quadrupole mass spectrometer with a Varian (Walnut Creek, Calif.) 3400 GC, which is controlled by Finnigan ICIS software operated on a DEC alpha station. The extracts in solution […] were injected in a splitless mode and analyzed by GC on a Restek (Bellefonte, Pa.) RTX-5 column (15 m, 0.33 mm id, […]). The initial temperature of GC was set at 80° C. for 1 min, increased to 220° C. at a rate of 50° C./min, and then raised to a final temperature of 280° C. at a rate of 10° C./min. The temperatures of the injector, transfer line of the GC column, and of the ion-source were set at 280° C., 280° C., and 240° C., respectively. The full scan mass spectra (50 to 500 Dalton) were acquired at a rate of 1 scan/0.25 Sec.

[4] = system: L. major spt2^− promastigotes; assay: Composition of free sterols by GC/MS, spt2^− promastigotes; type: cell-based, Leishmania major; conditions: 48 hours
Method: as §3, §4, §5, §6

[5] = system: L. major LV39 WT promastigotes; assay: Detergent resistant membrane fractions (insoluble GP63), WT promastigotes; type: cell-based, Leishmania major
Method: (§7) Detergent resistant membrane fractions (DRMs) were prepared using Triton X-100 from L. major promastigotes as previously described [Zhang, et al., 2003. Such DRMs are usually enriched for raft-associated materials and have been used to characterize rafts [London, et al., 2000; Brown, et al., 1998]. A typical marker for a raft in Leishmania parasites is GP63, a GPI-anchored metalloprotease, which can be detected from DRM samples by western-blot [Zhang, et al., 2003].
as §4, with “DRMs were also isolated and the percentage of GP63 that were insoluble at 4° C. was used as an indicator for the integrity of DRM (see FIG. 2). Two to four independent experiments were performed and the averaged results were plotted in FIG. 3.” left out
(§8) Detergent resistant membrane fractions (DRMs) were isolated and a western blot with a monoclonal antibody again Leishmania GP63 #235 was performed as previously described [Zhang, et al., 2003]. Percentages of GP63 in soluble and insoluble fraction after extractions at 4° C. were determined using a Fuji FLA5000 phosphoimager.

[6] = system: L. major spt2^− promastigotes; assay: Detergent resistant membrane fractions (insoluble GP63), spt2^− promastigotes; type: cell-based, Leishmania major
Method: as §7
as §4, with “DRMs were also isolated and the percentage of GP63 that were insoluble at 4° C. was used as an indicator for the integrity of DRM (see FIG. 2). Two to four independent experiments were performed and the averaged results were plotted in FIG. 3.” left out
as §8

[7] = system: L. major ads1^− promastigotes; assay: Growth inhibition assay, EPL-null ads1^− mutant versus FV1 WT; type: cell-based, Leishmania major; conditions: 96 hours for ads1^−
Method: as §2

[8] = system: Leishmania amastigotes growing in murine macrophages; assay: Amastigotes growing in murine macrophages; type: cell-based; conditions: preliminary results, data not shown
[9] = system: L. major spt2^− promastigotes; assay: Flagellar localization of FcaBP-HA (immunofluorescence), spt2^− promastigotes; type: cell-based, Leishmania major; conditions: concentration 5˜10 times of EC50 for 20 hours, data not shown
[10] = 48 h, LV39 WT promastigotes, 48 hours, read-out: EC50 in WT

CCC(C)n1ncn(-c2ccc(N3CCN(c4ccc(OCC5COC(Cn6cncn6)(c6ccc(Cl)cc6Cl)O5)cc4)CC3)cc2)c1=O (centres unmarked) [Itraconazole]
EC50 [1, 10]: ~1.1 µM | EC50 ([1]; LV39 WT grown in the presence of 10 μM MYR, read-out: EC50 for ITZ in WT + 10 μM myriocin): ~0.0046 µM | EC50 ([1]; read-out: EC50 of ITZ in combination with 25 μM MYR): 0.00092 µM | EC50 ([1]; read-out: EC50 of ITZ in combination with […] MYR): 0.131 µM | Growth (%) ([1]; WT + 1 nM ITZ, 48 hours): 91.5% | Growth (%) ([1]; WT + 5 nM ITZ, 48 hours): 81.6% | growth, % of control ([1]; WT, 1˜10 nM ITZ, 48 hours): 75˜95% | EC50 [2]: 0.0039 µM | EC50 (WT)/EC50 (spt2^−) [2]: 282 | Growth (%) ([2]; spt2^− + 1 nM ITZ, 48 hours): 64.6% | Growth (%) ([2]; spt2^− + 5 nM ITZ, 48 hours): 29.4% | proliferation, % of control ([2]; spt2^−, 1˜10 nM ITZ, 48 hours): 28˜67% | 5-dehydroepisterol (%) ([3]; WT + 1 nM ITZ): 9.6% | 14-methylfecosterol (%) ([3]; WT + 1 nM ITZ): 62.3% | Cholesterol (%) ([3]; WT + 1 nM ITZ): 2.9% | Episterol (%) ([3]; WT + 1 nM ITZ): 0.9% | Ergosterol (%) ([3]; WT + 1 nM ITZ): 24.3% | Total sterols/cell ([3]; WT + 1 nM ITZ): 2.0 × 10^8 /cell | 5-dehydroepisterol (%) ([3]; WT + 5 nM ITZ): 1.7% | 14-methylfecosterol (%) ([3]; WT + 5 nM ITZ): 92.2% | Cholesterol (%) ([3]; WT + 5 nM ITZ): 3.2% | Ergosterol (%) ([3]; WT + 5 nM ITZ): 2.9% | Total sterols/cell ([3]; WT + 5 nM ITZ): 3.3 × 10^8 /cell | 14-methylfecosterol among all sterols ([3]; WT, 1˜10 nM ITZ): 80˜92% | endogenous sterols ([3]; WT, 1˜10 nM ITZ): 4˜6% | 5-dehydroepisterol (%) ([4]; spt2^− + 1 nM ITZ): 3.7% | 14-methylfecosterol (%) ([4]; spt2^− + 1 nM ITZ): 59.4% | Cholesterol (%) ([4]; spt2^− + 1 nM ITZ): 22.0% | Episterol (%) ([4]; spt2^− + 1 nM ITZ): 1.6% | Ergosterol (%) ([4]; spt2^− + 1 nM ITZ): 13.2% | Lanosterol (%) ([4]; spt2^− + 1 nM ITZ): 0.1% | Total sterols/cell ([4]; spt2^− + 1 nM ITZ): 4.0 × 10^8 /cell | 5-dehydroepisterol (%) ([4]; spt2^− + 5 nM ITZ): 2.1% | 14-methylfecosterol (%) ([4]; spt2^− + 5 nM ITZ): 75.2% | Cholesterol (%) ([4]; spt2^− + 5 nM ITZ): 17.1% | Episterol (%) ([4]; spt2^− + 5 nM ITZ): 0.4% | Ergosterol (%) ([4]; spt2^− + 5 nM ITZ): 4.0% | Lanosterol (%) ([4]; spt2^− + 5 nM ITZ): 1.2% | Total sterols/cell ([4]; spt2^− + 5 nM ITZ): 4.4 × 10^8 /cell | endogenous sterols ([4]; spt2^−, 1˜10 nM ITZ): 4˜6% | ITZ concentration significantly inhibiting growth and DRM stability in WT ([5]; WT parasites): more than 100 nM | GP63 in DRM ([5]; WT, 1˜10 nM ITZ, 4° C., 50˜55% in control cells): 40˜55% | ITZ concentration causing significant reduction of insoluble GP63 at 4° C. ([6]; spt2^− parasites): higher than 1 nM | GP63 in DRM ([6]; spt2^−, 1˜10 nM ITZ, 4° C., 45˜50% in control cells): 24˜28%

CCCCCCC(=O)CCCCCC/C=C/C[C@@H](O)[C@H](O)[C@@](N)(CO)C(=O)O [MYR, myriocin]
EC50 [1, 10]: ~55 µM | EC50 ([1]; LV39 WT, 750 nM ITZ, read-out: EC50 of MYR in combination with 750 nM ITZ): 1.5 µM | EC50 ([1]; read-out: EC50 for MYR in the presence of 0.5 μM ITZ, LV39 WT, 500 nM ITZ): ~1.8 µM | EC50 ([1]; read-out: EC50 of MYR in combination with 250 nM ITZ, LV39 WT, 250 nM ITZ): 2.2 µM | Sensitivity of ads1^− mutant in comparison to FV1 WT [7]: hypersensitive | Effect of MYR on the efficacy of ITZ on amastigotes [8]: does not improve the efficacy of ITZ

CN(C/C=C/C#CC(C)(C)C)Cc1cccc2ccccc12 [Terbinafine]
EC50 [1, 10]: 4.3 µM | EC50 [2]: 3.3 µM | EC50 (WT)/EC50 (spt2^−) [2]: 1.3 | Selectivity against spt2^− parasites (in words) ([2]; spt2^− versus LV39 WT): did not cause the extreme hypersensitivity | Sensitivity of ads1^− mutant in comparison to FV1 WT [7]: very similar EC50s; also recorded: little or no selectivity | Mislocalization of FcaBP-HA [9]: did not show such defect
